Data on 5 compounds can be found in US4328215A, “Method of reducing or avoiding the mutagenic activity of drugs” (The Johns Hopkins University, priority 1977, dated 1982).

Read-outs that look alike come from different tables or passages of the source. Where a SMILES comes first, the peptide text is derived from it. Bridges are numbered along the chain shown (N, C = ends). [ ]: non-standard residue; d: D form. The star is where a group is joined. Ileψ(thiazoline)Cys = CC[C@H](C)[C@H](N)C1=N[C@H](C(=O)*)CS1; dOrn = NCCC[C@@H](N)C(=O)O

For one data set, the system named is intestinal bacteria. The data set is described as follows: Effect on intestinal bacterial flora of mice. It counts as in vivo. Here is the method:
[…] Homogenates of these organs were made with 10 ml nutrient broth (Difco) and serial dilutions were plated on nutrient agar plates. Obligatory anaerobic bacteria were counted in the same manner except that the organs were homogenized in thioglycolate (Difco) medium and the agar plates were incubated in anaerobic jars. The plates were counted after incubation for 24 hours at 37° C. There were no significant differences in counts when the incubation time was extended for 48 hours. Six mice were used for each time interval.

Data set [1] is described as follows: Mutagenic metabolite of oxamniquine in urine of mice. The format is in vivo. As to conditions: mixture of erythromycin, bacitracin and succinyl sulfathiazole. The source says:
Ir also is used, though to a lesser extent, in Africa and the Mid-east for the treatment of schistosomiasis mansoni.

The conditions of data set [2]: monkeys; oxamniquine alone; cited from earlier work.
The conditions of data set [3]: mice; oxamniquine alone; cited from earlier work.
For data set [4] the following is noted: ampicillin administered; cited from earlier work.

For the compound `CC[C@H]1OC(=O)[C@H](C)[C@@H](O[C@H]2C[C@@](C)(OC)[C@@H](O)[C@H](C)O2)[C@H](C)[C@@H](O[C@@H]2O[C@H](C)C[C@H](N(C)C)[C@H]2O)[C@](C)(O)C[C@@H](C)C(=O)[C@H](C)[C@@H](O)[C@]1(C)O` [Erythromycin], the “Number of aerobes in the large intestine” value with intestinal bacteria (erythromycin base 100 mg/kg single oral dose, large intestine, aerobes) is “little, if any, change”. The “Number of anaerobes in the large intestine” value with intestinal bacteria (erythromycin base 100 mg/kg single oral dose, large intestine, anaerobes) was “little, if any, change”. For the same compound, the “Total number of aerobic bacteria in the small intestine” value with intestinal bacteria (erythromycin base 100 mg/kg single oral dose, small intestine, aerobes) is listed as “only a moderate reduction, of relatively short duration”. In addition, the “Anaerobic bacteria in the small intestine” value in the data set with intestinal bacteria (erythromycin base 100 mg/kg single oral dose, small intestine, anaerobes) is listed as “reduced to an even lesser extent than were aerobes”. The “Host mediated assay, revertants per 10^8 bacteria, controls (no CGP 4540)” value in the data set with S. typhimurium TA 100 (antibiotic alone, 100 mg/kg oral, mice) is recorded as 65 (±4) revertants per 10^8 bacteria.

Consider `O=C(O)CCC(=O)Nc1ccc(S(=O)(=O)Nc2nccs2)cc1` [Succinylsulfathiazole], for which the “Bacterial flora of the host's intestines” value in the data set with intestinal bacteria (1 g/kg once daily for 3 successive days, oral) is reported as “reduces the bacterial flora”. In the data set with S. typhimurium TA 100 (in vivo), the “Host-mediated assay, revertants per 10^8 bacteria, controls (no CGP 4540)” value is given as 62(±5) revertants per 10^8 bacteria.

For `CC[C@H](C)[C@H](N)C1=N[C@H](C(=O)N[C@@H](CC(C)C)C(=O)N[C@H](CCC(=O)O)C(=O)N[C@H](C(=O)N[C@H]2CCCCNC(=O)[C@H](CC(N)=O)NC(=O)[C@@H](CC(=O)O)NC(=O)[C@H](Cc3cnc[nH]3)NC(=O)[C@@H](Cc3ccccc3)NC(=O)[C@H]([C@@H](C)CC)NC(=O)[C@@H](CCCN)NC2=O)[C@@H](C)CC)CS1` [Bacitracin] ({Ileψ(thiazoline)Cys}-L[dE]IK[dOrn]I[dF]H[dD]N; lactam 4-C), the “Host-mediated assay, revertants per 10^8 bacteria, controls (no CGP 4540)” value with S. typhimurium TA 100 (bacitracin alone, 220 mg/kg, mice) is listed as 64(±9) revertants per 10^8 bacteria; with S. typhimurium TA 100 (bacitracin alone, 440 mg/kg, mice), 71(±5) revertants per 10^8 bacteria.

In the case of `CC(C)NCC1CCc2cc(CO)c([N+](=O)[O-])cc2N1` (stereo not shown) [oxamniquine], the “Appearance of the mutagenic metabolite with coadministered antibacterial agents” value in data set [1] is recorded as “completely eliminates the appearance of the mutagenic metabolite”. The “Mutagenic metabolite in urine” value in data set [2] and in data set [3] was “gives rise to the appearance of a mutagenic metabolite in the urine” throughout.

In the case of `C[N+]([O-])=NCO[C@@H]1O[C@H](CO)[C@@H](O)[C@H](O)[C@H]1O` [cycasin], the “Formation of the aglycone after administration of ampicillin” value in data set [4] is on record as “prevented”.
